Data from US20250084039A1, “4-SUBSTITUTED AMINOISOQUINOLINE DERIVATIVES” (Purdue Research Foundation, priority 2016, published 2025).

Legend:
RIPK2 = RIPK2 (Homo sapiens (Human), UniProt O43353); experiment: Reaction Biology HotSpot kinase assay; assay type: biochemical; conditions: 500 nM compound; read-out: Percentage kinase inhibition RIPK2
Procedure, shortened: (§1)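 Each compound was tested at 500 nM, with 33P incorporation from ATP (100 μM final, including [γ-33P]ATP) measured by P81 paper capture after a 2 h room-temperature reaction.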

RIPK3 = RIPK3 (Homo sapiens (Human), UniProt Q9Y572); experiment: Reaction Biology HotSpot kinase assay; assay type: biochemical; conditions: 500 nM compound; read-out: Percentage kinase inhibition RIPK3
Procedure, shortened: as §1

FGFR3 = FGFR3 (Homo sapiens (Human), UniProt P22607); experiment: Reaction Biology HotSpot kinase assay; assay type: biochemical; conditions: 500 nM compound; read-out: Percentage kinase inhibition FGFR3
Chain of FGFR3 (P22607 23-806): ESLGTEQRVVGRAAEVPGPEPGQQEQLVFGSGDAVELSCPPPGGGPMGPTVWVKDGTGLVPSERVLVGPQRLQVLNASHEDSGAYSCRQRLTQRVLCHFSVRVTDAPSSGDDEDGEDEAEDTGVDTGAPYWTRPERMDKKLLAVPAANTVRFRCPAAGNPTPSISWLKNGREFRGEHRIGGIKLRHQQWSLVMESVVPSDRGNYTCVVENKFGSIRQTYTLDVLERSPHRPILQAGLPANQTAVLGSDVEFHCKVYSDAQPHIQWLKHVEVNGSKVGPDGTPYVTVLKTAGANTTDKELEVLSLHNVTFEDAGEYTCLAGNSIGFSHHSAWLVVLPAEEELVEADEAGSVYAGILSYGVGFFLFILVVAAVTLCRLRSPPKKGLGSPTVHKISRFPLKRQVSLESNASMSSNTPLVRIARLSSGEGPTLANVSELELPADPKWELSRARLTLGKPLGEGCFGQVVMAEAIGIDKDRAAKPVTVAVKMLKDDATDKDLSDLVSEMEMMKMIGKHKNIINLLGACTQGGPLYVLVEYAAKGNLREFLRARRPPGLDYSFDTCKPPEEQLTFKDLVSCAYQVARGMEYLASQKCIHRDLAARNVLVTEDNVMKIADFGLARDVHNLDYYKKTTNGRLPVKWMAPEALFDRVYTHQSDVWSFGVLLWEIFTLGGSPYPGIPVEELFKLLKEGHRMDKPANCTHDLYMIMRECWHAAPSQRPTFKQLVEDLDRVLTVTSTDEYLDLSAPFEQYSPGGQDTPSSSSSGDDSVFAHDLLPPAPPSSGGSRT
Procedure, shortened: as §1

PDGFRb = PDGFRb (Homo sapiens (Human), UniProt P09619); experiment: Reaction Biology HotSpot kinase assay; assay type: biochemical; conditions: 500 nM compound; read-out: Percentage kinase inhibition PDGFRb
Procedure, shortened: as §1

DAPK1 = DAPK1 (Homo sapiens (Human), UniProt P53355); experiment: Reaction Biology HotSpot kinase assay; assay type: biochemical; conditions: 500 nM compound; read-out: Percentage kinase inhibition DAPK1
Chain of DAPK1 (P53355 whole entry): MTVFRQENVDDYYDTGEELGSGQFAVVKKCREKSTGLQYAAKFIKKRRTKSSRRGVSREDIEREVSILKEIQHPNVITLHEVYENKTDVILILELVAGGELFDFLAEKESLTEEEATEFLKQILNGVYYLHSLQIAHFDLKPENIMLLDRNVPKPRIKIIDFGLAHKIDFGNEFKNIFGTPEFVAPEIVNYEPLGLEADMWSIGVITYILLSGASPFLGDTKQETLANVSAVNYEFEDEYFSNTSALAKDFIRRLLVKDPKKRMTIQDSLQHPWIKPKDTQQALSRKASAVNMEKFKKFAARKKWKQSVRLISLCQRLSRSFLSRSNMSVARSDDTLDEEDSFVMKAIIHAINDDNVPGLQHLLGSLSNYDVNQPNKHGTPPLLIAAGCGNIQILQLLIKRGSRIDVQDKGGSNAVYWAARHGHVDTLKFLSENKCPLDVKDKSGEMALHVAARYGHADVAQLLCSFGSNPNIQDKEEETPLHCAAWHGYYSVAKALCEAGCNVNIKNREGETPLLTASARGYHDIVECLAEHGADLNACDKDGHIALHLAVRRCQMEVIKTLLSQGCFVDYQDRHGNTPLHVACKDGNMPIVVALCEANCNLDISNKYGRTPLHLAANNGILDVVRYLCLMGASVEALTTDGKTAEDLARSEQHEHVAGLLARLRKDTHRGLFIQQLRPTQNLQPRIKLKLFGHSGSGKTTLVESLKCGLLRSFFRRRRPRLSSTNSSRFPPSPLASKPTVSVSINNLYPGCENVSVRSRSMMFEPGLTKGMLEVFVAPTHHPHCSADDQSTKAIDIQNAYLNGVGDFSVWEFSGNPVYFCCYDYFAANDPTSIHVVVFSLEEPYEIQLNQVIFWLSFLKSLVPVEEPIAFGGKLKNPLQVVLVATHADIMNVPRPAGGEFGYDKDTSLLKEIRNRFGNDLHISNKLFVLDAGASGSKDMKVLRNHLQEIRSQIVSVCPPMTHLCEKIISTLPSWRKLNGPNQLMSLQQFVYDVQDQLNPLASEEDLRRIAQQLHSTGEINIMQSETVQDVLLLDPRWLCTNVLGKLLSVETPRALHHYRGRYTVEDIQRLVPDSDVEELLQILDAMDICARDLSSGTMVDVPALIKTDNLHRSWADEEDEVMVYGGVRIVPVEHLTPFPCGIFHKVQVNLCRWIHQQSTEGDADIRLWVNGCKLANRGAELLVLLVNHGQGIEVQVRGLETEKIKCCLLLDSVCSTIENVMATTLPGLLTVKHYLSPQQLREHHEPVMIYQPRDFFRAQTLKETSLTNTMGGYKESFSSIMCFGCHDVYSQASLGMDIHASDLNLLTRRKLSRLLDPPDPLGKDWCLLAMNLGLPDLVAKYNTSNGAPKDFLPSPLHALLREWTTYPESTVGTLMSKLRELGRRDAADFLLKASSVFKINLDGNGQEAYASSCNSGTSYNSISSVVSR
Procedure, shortened: as §1

FGFR2 = FGFR2 (Homo sapiens (Human), UniProt P21802); experiment: Reaction Biology HotSpot kinase assay; assay type: biochemical; conditions: 500 nM compound; read-out: Percentage kinase inhibition FGFR2
Procedure, shortened: as §1

MEKK2 = MEKK2 (Homo sapiens (Human), UniProt Q9Y2U5); experiment: Reaction Biology HotSpot kinase assay; assay type: biochemical; conditions: 500 nM compound; read-out: Percentage kinase inhibition MEKK2
Procedure, shortened: as §1

FGR = FGR (Homo sapiens (Human), UniProt P09769); experiment: DiscoverX Kd Elect binding
Chain of FGR (P09769 whole entry): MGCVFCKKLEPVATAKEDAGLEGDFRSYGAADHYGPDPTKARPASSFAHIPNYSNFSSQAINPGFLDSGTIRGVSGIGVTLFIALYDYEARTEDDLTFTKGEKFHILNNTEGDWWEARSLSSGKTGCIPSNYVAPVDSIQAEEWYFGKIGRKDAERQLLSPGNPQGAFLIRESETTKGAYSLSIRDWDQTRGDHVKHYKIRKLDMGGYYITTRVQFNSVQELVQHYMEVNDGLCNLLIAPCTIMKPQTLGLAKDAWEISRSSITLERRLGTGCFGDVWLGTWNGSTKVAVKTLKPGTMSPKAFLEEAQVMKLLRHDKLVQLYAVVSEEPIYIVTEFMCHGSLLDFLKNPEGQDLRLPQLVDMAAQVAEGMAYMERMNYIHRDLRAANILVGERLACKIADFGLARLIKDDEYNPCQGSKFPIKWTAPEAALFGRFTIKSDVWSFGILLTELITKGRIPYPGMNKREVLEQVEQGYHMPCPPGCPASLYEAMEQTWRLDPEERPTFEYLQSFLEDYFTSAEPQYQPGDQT
Description: (§2) HCK is expressed more in human primary leukemic stem cells than in human normal hematopoietic stem cells. […] Other protein kinases such as SYK, BRAF, p38 (p38MAPK), PDGFRα/β, FGFR1, RET, FLT4, Tie2 have also been linked to leukemia. […] Thus, it was tested if HSN286 and analogs were also targeting kinases that play critical roles in AML. […] (Table 9). The inhibition of the Src-kinase family could be important clinically because these kinases are downstream of FLT3. In the event of FLT3 mutation, the inhibition of the Src-family kinases could still lead to proliferation inhibition.

PLK1 = PLK1 (Homo sapiens (Human), UniProt P53350); experiment: DiscoverX Kd Elect binding
Description: as §2

LYN = LYN (Homo sapiens (Human), UniProt P07948); experiment: DiscoverX Kd Elect binding
Description: as §2

AURKA = AURKA (Homo sapiens (Human), UniProt O14965); experiment: DiscoverX Kd Elect binding
Chain of AURKA (O14965 whole entry): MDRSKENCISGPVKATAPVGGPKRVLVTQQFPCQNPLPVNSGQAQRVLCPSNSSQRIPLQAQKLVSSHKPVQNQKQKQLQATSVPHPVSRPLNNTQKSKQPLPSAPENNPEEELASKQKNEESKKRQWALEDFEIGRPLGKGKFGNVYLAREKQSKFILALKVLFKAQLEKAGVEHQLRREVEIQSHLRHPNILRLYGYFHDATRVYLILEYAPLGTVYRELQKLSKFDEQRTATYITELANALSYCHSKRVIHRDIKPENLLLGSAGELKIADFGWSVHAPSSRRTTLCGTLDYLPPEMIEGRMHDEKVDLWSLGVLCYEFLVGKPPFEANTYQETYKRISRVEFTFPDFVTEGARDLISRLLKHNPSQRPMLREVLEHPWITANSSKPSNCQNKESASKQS
Description: as §2

HCK = HCK (Homo sapiens (Human), UniProt P08631); experiment: DiscoverX Kd Elect binding
Description: as §2

FAK = FAK (Homo sapiens (Human), UniProt Q05397); experiment: DiscoverX Kd Elect binding
Chain of FAK (Q05397 whole entry): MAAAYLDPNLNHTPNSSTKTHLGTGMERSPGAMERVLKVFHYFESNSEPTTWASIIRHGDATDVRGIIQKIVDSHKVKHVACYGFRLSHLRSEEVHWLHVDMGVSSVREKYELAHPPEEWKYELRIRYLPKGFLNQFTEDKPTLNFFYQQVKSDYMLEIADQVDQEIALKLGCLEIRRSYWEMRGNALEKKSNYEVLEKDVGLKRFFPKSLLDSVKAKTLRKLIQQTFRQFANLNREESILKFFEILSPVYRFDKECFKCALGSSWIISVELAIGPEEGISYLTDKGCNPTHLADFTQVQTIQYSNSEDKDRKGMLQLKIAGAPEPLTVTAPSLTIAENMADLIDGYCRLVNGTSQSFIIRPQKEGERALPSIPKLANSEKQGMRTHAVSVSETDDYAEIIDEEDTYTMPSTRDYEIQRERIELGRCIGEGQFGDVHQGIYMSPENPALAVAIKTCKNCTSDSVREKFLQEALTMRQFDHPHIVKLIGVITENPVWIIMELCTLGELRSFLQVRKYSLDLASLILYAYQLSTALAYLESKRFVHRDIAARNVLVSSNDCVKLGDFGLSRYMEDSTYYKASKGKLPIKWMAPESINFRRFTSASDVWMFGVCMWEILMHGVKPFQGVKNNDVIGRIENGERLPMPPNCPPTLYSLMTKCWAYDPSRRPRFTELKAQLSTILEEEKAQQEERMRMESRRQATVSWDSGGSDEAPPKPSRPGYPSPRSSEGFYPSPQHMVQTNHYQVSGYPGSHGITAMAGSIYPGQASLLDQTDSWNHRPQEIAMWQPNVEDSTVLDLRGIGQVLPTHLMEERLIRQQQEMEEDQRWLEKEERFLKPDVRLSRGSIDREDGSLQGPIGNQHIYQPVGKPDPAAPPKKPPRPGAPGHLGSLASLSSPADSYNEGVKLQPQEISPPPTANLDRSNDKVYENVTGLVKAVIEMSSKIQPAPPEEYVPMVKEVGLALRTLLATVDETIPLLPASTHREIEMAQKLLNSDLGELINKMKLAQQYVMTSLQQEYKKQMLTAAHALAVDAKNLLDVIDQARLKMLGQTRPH
Description: as §2

KIT = KIT (Homo sapiens (Human), UniProt P10721); experiment: DiscoverX Kd Elect binding
Description: as §2

SRC = SRC (Homo sapiens (Human), UniProt P12931); experiment: DiscoverX Kd Elect binding
Description: as §2

BLK = BLK (Homo sapiens (Human), UniProt P51451); experiment: DiscoverX Kd Elect binding
Chain of BLK (P51451 whole entry): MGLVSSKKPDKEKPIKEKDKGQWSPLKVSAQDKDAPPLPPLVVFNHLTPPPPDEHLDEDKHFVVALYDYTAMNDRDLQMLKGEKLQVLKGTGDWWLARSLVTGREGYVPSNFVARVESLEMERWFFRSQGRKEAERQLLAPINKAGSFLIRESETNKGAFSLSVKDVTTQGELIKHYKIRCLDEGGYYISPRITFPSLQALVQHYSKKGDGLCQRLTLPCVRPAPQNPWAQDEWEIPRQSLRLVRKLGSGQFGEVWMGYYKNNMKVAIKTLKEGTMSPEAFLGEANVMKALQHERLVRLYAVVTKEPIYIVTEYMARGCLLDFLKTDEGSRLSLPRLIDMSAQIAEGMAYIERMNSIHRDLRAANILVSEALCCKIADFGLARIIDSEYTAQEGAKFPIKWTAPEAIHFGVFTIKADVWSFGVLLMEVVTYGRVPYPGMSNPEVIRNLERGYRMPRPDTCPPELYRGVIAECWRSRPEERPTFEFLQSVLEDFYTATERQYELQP
Description: as §2

FYN = FYN (Homo sapiens (Human), UniProt P06241); experiment: DiscoverX Kd Elect binding
Description: as §2

PIK3CA = PIK3CA (Homo sapiens (Human), UniProt P42336); experiment: DiscoverX Kd Elect binding
Description: as §2

PIM1 = PIM1 (Homo sapiens (Human), UniProt P11309); experiment: DiscoverX Kd Elect binding
Chain of PIM1 (P11309 whole entry): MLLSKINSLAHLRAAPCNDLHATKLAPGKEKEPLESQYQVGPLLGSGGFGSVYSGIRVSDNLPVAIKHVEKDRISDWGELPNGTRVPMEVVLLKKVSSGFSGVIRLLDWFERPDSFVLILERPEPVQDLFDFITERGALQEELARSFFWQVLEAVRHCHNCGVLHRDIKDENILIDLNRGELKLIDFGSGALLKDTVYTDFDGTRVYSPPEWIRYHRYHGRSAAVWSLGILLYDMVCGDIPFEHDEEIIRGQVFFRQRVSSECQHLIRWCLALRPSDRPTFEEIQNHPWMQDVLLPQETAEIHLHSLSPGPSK
Description: as §2

SMILES | inhibition at 0.5 µM (RIPK2) [%] | inhibition at 0.5 µM (RIPK3) [%] | inhibition at 0.5 µM (FGFR3) [%] | inhibition at 0.5 µM (PDGFRb) [%] | inhibition at 0.5 µM (DAPK1) [%] | inhibition at 0.5 µM (FGFR2) [%] | inhibition at 0.5 µM (MEKK2) [%] | Kd (FGR) [nM] | Kd (PLK1) [nM] | Kd (LYN) [nM] | Kd (AURKA) [nM] | Kd (HCK) [nM] | Kd (FAK) [nM] | Kd (KIT) [nM] | Kd (SRC) [nM] | Kd (BLK) [nM] | Kd (FYN) [nM] | Kd (PIK3CA) [nM] | Kd (PIM1) [nM]
Cc1ccc(C(=O)Nc2ccc(CN3CCN(C)CC3)c(C(F)(F)F)c2)cc1C#Cc1cc(N)nc2ccccc12 [HSN285] | 0 | 0 | 0 | 46 | 14 | 0 | 0 |  |  |  |  |  |  |  |  |  |  |  | 
Cc1ccc(C(=O)Nc2ccc(CN3CCN(C)CC3)c(C(F)(F)F)c2)cc1C#Cc1c(N)ncc2ccc(Cl)cc12 [HSN286] | 25 | 96 | 88 | 96 | 9 | 96 | 52 | 7 | > 30000 | 11 | > 30000 | 3.6 | 5100 | 42 | 16 | 3.9 | 28 | 26000 | 11000
Cc1ccc(C(=O)Nc2ccc(CN3CCN(C)CC3)c(C(F)(F)F)c2)cc1C#Cc1cnc(N)c2ncccc12 [HSN356, 3-((8-amino-1,7-naphthyridin-5-yl)ethynyl)-4-methyl-N-(4-((4-methylpiperazin-1-yl)methyl)-3-(trifluoromethyl)phenyl)benzamide] |  |  |  |  |  |  |  | 7.9 | 9600 | 5.4 | 5100 | 2.5 | 4700 | 7.2 | 15 | 1.2 | 38 | > 30000 | 19000
